# Ends that are not written are not given here.
# Experiments:
# Malassezia furfur [1] = test: Incubation times with P18 from 5 minutes to 1 hour, CFU of M. furfur, compared to Zincpyrithione; assay type: cell-based
# Description: Since growth inhibition of M. furfur by the peptide P18 (P18 peptide sequence H-KWKLFKKIPKFLHLAKKF-NH2; SEQ ID NO: 3) had so far only been analyzed over incubation times of more than one hour, now the effect of the peptide P18 within the first minutes of incubation (5 minutes, 10 minutes and 20 minutes) up to the first hour after adding to the M. furfur overnight culture was tested and compared to the reference substance Zincpyrithione (Sigma Aldrich). For this, the peptide P18 and the reference substance Zincpyrithione were used in concentrations of 100 μM, 200 μM and 500 μM. The experiments were carried out as follows:
# (§1) Growth medium: M472-Pityrosporum medium according to DSMZ
# (§2) The components were sterilized at 121° C., 1 bar superatmospheric pressure for 20 minutes.
# (§3) 2 g/L of olive oil (sterilized by filtration and, after autoclaving, added to the other components)
# (§4) Since it was a two-phase medium, the complete medium was treated with sonication in order to enlarge the phase boundary.
# (§5) For agar plates, if appropriate, 150 g/L of agar agar were added to the medium.
# (§6) The growth test was carried out as follows: A shake flask with M472-Pityrosporum medium was inoculated with M. furfur and incubated with shaking overnight at 30° C. and 200 rpm.
# A 96-well microtiter plate was filled with in each case 100 μl of M472-Pityrosporum medium and inoculated with M. furfur suspension of the overnight culture. The M. furfur suspension was adjusted at the start of the experiment to an optical density, measured at 600 nm, of 0.1.
# The growth of the following batches was compared:
# M. furfur suspension and addition of the peptide P18 with a final concentration of 100 μM, plating out after 5 minutes, 10 minutes, 20 minutes and 60 minutes
# M. furfur suspension and addition of the peptide P18 with a final concentration of 200 μM plating out after 5 minutes, 10 minutes, 20 minutes and 60 minutes
# M. furfur suspension and addition of the peptide P18 with a final concentration of 500 μM plating out after 5 minutes, 10 minutes, 20 minutes and 60 minutes
# M. furfur suspension and addition of Zincpyrithione with a final concentration of 100 μM plating out after 5 minutes, 10 minutes, 20 minutes and 60 minutes
# M. furfur suspension and addition of Zincpyrithione with a final concentration of 200 μM plating out after 5 minutes, 10 minutes, 20 minutes and 60 minutes
# M. furfur suspension and addition of Zincpyrithione with a final concentration of 500 μM plating out after 5 minutes, 10 minutes, 20 minutes and 60 minutes
# (§7) The microtiter plate was incubated with shaking at 30° C.
# After the incubation times indicated above, the colony-forming units (CFU) were determined by plating out 50 μl from each of the suspensions and, after incubation for 6 days, counting the colonies. The CFU was determined in order to exclude an influence of the two-phase medium and also the growth form of M. furfur on the optical density. The experiments were independently repeated.
# Malassezia furfur [2] = test: Minimum inhibitory concentration (MIC) of P18 in the presence of shampoo basic formulation 31-3, CFU after 24 hours; assay type: cell-based; conditions: for CFU after 24 hours of incubation: in presence of shampoo basic formulation 31-3
# Description: The minimum inhibitory concentration (MIC) of the peptide P18 (H-KWKLFKKIPKFLHLAKKF-NH2; carboxy-terminal end amidated; SEQ ID NO: 3) in the presence of the shampoo basic formulation 31-3 (table 16) was tested as follows: […]
# The following shampoo basic formulation was prepared: […]
# The shampoo basic formulation was prepared by mixing and dissolving the components Texapon NSO and Tego Betain L7. The pH was adjusted to pH 6-7 with NaOH.
# The effect of the peptide against M. furfur was analyzed as follows:
# as §1, §2, §3, §4, §5, §6
# A 96-well microtiter plate was filled with in each case 170 μl of M472-Pityrosporum medium and inoculated with 10 μl of M. furfur suspension of the overnight culture. This corresponded to an optical density of 0.02-0.1, measured at 620 nm. 20 μl of shampoo basic formulation 31-3 were added to this mixture. Peptide P18 was dissolved in DMSO with a concentration of 10 mM.
# as §7
# After incubation for 24 hours, the colony-forming units (CFU) were determined by resuspending 1 μl of each of the suspensions in 10 μl of medium and then plating out the obtained suspensions. After incubation for 6 days, the colonies on the plate were counted. The experiment was carried out in double determination.
substance,measurement,setting,value
"KWKLFKKIPKFLHLAKKF-NH2 [P18, KWKLFKKIPKFLHLAKKF-NH2]",number of living Malassezia furfur cells,Malassezia furfur [1]; after the first 10 minutes of incubation,considerably reduced as compared to incubation with Zincpyrithione
same,colony-forming units after the indicated incubation time,"Malassezia furfur [1]; final concentration 100 μM, 5 minutes",>1000
same,colony-forming units after the indicated incubation time,"Malassezia furfur [1]; final concentration 100 μM, 10 minutes",>1000
same,colony-forming units after the indicated incubation time,"Malassezia furfur [1]; final concentration 100 μM, 20 minutes",604
same,colony-forming units after the indicated incubation time,"Malassezia furfur [1]; final concentration 100 μM, 60 minutes",149 ± 60
same,colony-forming units after the indicated incubation time,"Malassezia furfur [1]; final concentration 200 μM, 5 minutes",>1000
same,colony-forming units after the indicated incubation time,"Malassezia furfur [1]; final concentration 200 μM, 10 minutes",>1000
same,colony-forming units after the indicated incubation time,"Malassezia furfur [1]; final concentration 200 μM, 20 minutes",>1000
same,colony-forming units after the indicated incubation time,"Malassezia furfur [1]; final concentration 200 μM, 60 minutes",52 ± 16
same,colony-forming units after the indicated incubation time,"Malassezia furfur [1]; final concentration 500 μM, 5 minutes",>1000
same,colony-forming units after the indicated incubation time,"Malassezia furfur [1]; final concentration 500 μM, 10 minutes",398 ± 290
same,colony-forming units after the indicated incubation time,"Malassezia furfur [1]; final concentration 500 μM, 20 minutes",26 ± 6
same,colony-forming units after the indicated incubation time,"Malassezia furfur [1]; final concentration 500 μM, 60 minutes",1 ± 1
same,CFU after 24 hours of incubation,Malassezia furfur [2]; P18 concentration 25 μM,80
same,CFU after 24 hours of incubation,Malassezia furfur [2]; P18 concentration 50 μM,32
same,CFU after 24 hours of incubation,Malassezia furfur [2]; P18 concentration 100 μM,0
same,CFU after 24 hours of incubation,Malassezia furfur [2]; P18 concentration 200 μM,0
same,CFU after 24 hours of incubation,Malassezia furfur [2]; P18 concentration 300 μM,0
same,CFU after 24 hours of incubation,Malassezia furfur [2]; P18 concentration 400 μM,0
same,CFU after 24 hours of incubation,Malassezia furfur [2]; P18 concentration 500 μM,0
same,P18 concentrations that completely inhibit growth of M. furfur,"Malassezia furfur [2]; in the presence of shampoo basic formulation 31-3, 24 hours",above 100 μM

# — patent US8765688B2, “Anti-dandruff compositions containing peptides” (priority 2007, dated 2014)
